Data taken from patent US12303547B2, “Compound, use, pharmaceutical composition, method of diagnosis, method of treatment, and method of transportation and/or internalization of a compound into eukaryotic cells” (priority 2018, dated 2025).
Where no end group is shown, it is not given here.

Key:
Mia PaCa-2 = assay: Cell uptake study with Alexa Fluor 488 labelled molecules, Mia PaCa-2; format: cell-based, human; conditions: for Uptake by tumor cells: Alexa Fluor 488 labelled
From the text: (§1) The compound of the invention (C-ter) was chemically coupled with the amine reactive dye (Alexa fluor 488 […] tetra fluorophenyl ester (TFP)) using the Microscale Alexa Fluor® 488 Protein Labeling kit (Molecular Probes), following the manufacturer's instructions. Other entities (Amblyomin-X and its fragment called Kunitz domain) were also modified as described above, for comparative analysis.
(§2) The dye-conjugated protein was named 488-Amblyomin-X. Briefly, cells (10^4 cells/well) were seeded into 96-well plates. […] The cells were then incubated with Alexa Fluor 555 transferrin (100 μg/ml), the cholera toxin B subunit Alexa Fluor 555 (50 μg/ml) or Alexa Fluor 555 dextran (1 mg/ml) in binding medium to 37° C. for 20 min. Nuclei were stained with Hoechst 332. Then, green and red fluorescence were monitored using a Molecular Devices ImageXpress Micro Confocal plate scanning microscope (Molecular Devices, Sunnyvale, CA) or using LSM 510 Meta confocal microscope (Zeiss, Jena, Germany) followed by evaluation of overlap between 488-Amblyomin-X and endocytosis markers using MetaXpress software (Molecular Devices, Sunnyvale, CA).

[1] = system: human dermal fibroblasts (HDFa); assay: MTT cell viability assay, HDFa; format: cell-based; conditions: 48 h, preliminary results
From the text: (§3) Human melanomas (SK-MEL-28), pancreatic adenocarcinomas (MIA-PaCa-2) and murine renal adenocarcinoma cells (RENCA) were obtained and cultured according to the instructions of the American Type Culture Collection (ATCC, Manassas, VA). Human dermal fibroblast cells (HDFa) were obtained from Invitrogen. Endothelial cells were obtained from human umbilical veins (HUVECs), as previously described^11. The study received prior approval from the Research Ethics Committee and the free and informed consent form was obtained from female donors. HUVECs were seeded in T75 flasks previously covered with 2% gelatin and cultured in RPMI medium, supplemented with 10% fetal bovine serum, L-glutamine (2 mM), streptomycin sulfate ([…]), penicillin (100 U/ml) sodium pyruvate ([…]), 2-mercaptoethanol ([…]), ECGF ([…]) and heparin (45 μg/ml), pH 7.4. In all experiments, HUVEC were used in the second or third passages. All cell lines were routinely cultured in a humidified 5% CO2 incubator at 37° C.
(§4) Cell viability was measured by the 3-(4,5-dimethylthiazol-2-yl)-2,5-diphenyltetrazolium bromide (MTT) assay. […] Afterwards, the medium was discarded, the dark blue crystalline formazan product was dissolved in […] of dimethyl sulfoxide (DMSO), and the absorbance was measured in a Spectra MAX 190 microplate reader (Molecular Devices, Sunnyvale, USA) at 540 nm.

Tumor cell lines = assay: Co-localization with endocytosis and intracellular markers; format: cell-based, human
Procedure: (§5) The dye-conjugated protein was named 488-Amblyomin-X. Briefly, cells (10^4 cells/well) were seeded into 96-well plates. Once stabilized, the culture medium was replaced and cells were incubated with 488-Amblyomin-X (20 μM) at 37° C. for 2 h, 4 h and 24 h. The cells were then incubated with Alexa Fluor 555 transferrin (100 μg/ml), the cholera toxin B subunit Alexa Fluor 555 (50 μg/ml) or Alexa Fluor 555 dextran (1 mg/ml) in binding medium to 37° C. for 20 min. Nuclei were stained with Hoechst 332. Then, green and red fluorescence were monitored using a Molecular Devices ImageXpress Micro Confocal plate scanning microscope (Molecular Devices, Sunnyvale, CA) or using LSM 510 Meta confocal microscope (Zeiss, Jena, Germany) followed by evaluation of overlap between 488-Amblyomin-X and endocytosis markers using MetaXpress software (Molecular Devices, Sunnyvale, CA).
Tumor cells were cultured in 96-well plates (10^4 cells/well) and treated with 488-Amblyomin-X (20 μM) to indicate times. Cells were washed twice with PHEM-glycine buffer (2 mM HEPES, 10 mM EGTA, 2 mM MgCl2, 60 mM Pipes, 100 mM glycine, pH 6.9) and fixed with 4% paraformaldehyde for 3 h at room temperature. The washing step was repeated and then the cells were incubated with a cell permeabilizing solution (0.1% Tween in PHEM) for 5 minutes at room temperature. Samples were washed and incubated with 1% BSA blocking solution for 30 minutes at room temperature. Next, the primary antibody was incubated overnight at 4° C.: (i) caveolin-1 anti-human mouse 1:100 (Santa Cruz Biotechnology, Inc., USA); (ii) 1:50 anti-human LAMP-2 rabbit (Abcam). […] Next, green and red fluorescence were monitored by a Molecular Devices ImageXpress Micro Confocal Plate Scanning Microscope (Molecular Devices, Sunnyvale, CA) followed by evaluation of overlap between 488-Amblyomin-X and endocytosis markers using MetaXpress software (Molecular Devices, Sunnyvale, CA) or vesicle interactions by Imaris software.

HUVEC = assay: Cell uptake study (confocal), HUVEC; format: cell-based, human; conditions: 4 h, preliminary experiments
From the text: as §1, §5

SK-MEL-28 = assay: Cell uptake study with Alexa Fluor 488 labelled molecules, SK-MEL-28; format: cell-based, human; conditions: for Uptake by tumor cells: Alexa Fluor 488 labelled
From the text: as §1, §2

[2] = system: murine renal adenocarcinoma cells (RENCA); assay: MTT cell viability assay, RENCA; format: cell-based; conditions: 48 h, preliminary results
From the text: as §3, §4

[3] = system: MIA PaCa-2 pancreatic adenocarcinoma cells; assay: MTT cell viability assay, MIA PaCa-2; format: cell-based, human; conditions: MIA PaCa-2, 48 h, increasing concentrations; Amblyomin-X 20 μM
From the text: as §3, §4

SK-MEL-28 cells = assay: Role of PS in uptake (Na3VO4 or Annexin V pretreatment); format: cell-based, human
Procedure: To investigate the role of PS in C-ter uptake, cells were pretreated with Annexin V (5 μg/mL) or Na3VO4 (25 μM) and then incubated with fluorochrome-conjugated molecules for 4 hours.

[4] = system: SK-MEL-28 human melanoma cells; assay: MTT cell viability assay, SK-MEL-28; format: cell-based; conditions: SK-MEL-28, 48 h, increasing concentrations; Amblyomin-X 20 μM
From the text: as §3, §4

[5] = system: human umbilical vein endothelial cells (HUVEC); assay: MTT cell viability assay, HUVEC; format: cell-based; conditions: 48 h, preliminary results
From the text: as §3, §4

HDFa = assay: Cell uptake study (confocal), HDFa; format: cell-based, human; conditions: 4 h, preliminary experiments
From the text: as §1, §5

HUVECs = assay: Charge delivery capacity, uptake of Alexa 488 labelled peptides by HUVECs (HCS); format: cell-based, human; conditions: for uptake by HUVECs (HCS): 10 μM; for detection within HUVECs (HCS): after 4 h, 0.5, 1, 10 and 20 μM
Procedure: Endothelial cell culture was obtained from umbilical cords by digestion of umbilical cord veins with collagenase as described previously (19) with some modifications (20). Endothelial cells between the first and third passage were used for all experiments. Cells were seeded in 96-well culture plates (Advance, Greiner), special for immunofluorescence, at a density of 8×10^3 cells/well pre-coated with 2% (w/v) gelatin in EGM®-2 BulletKit® medium for HUVECs (Lonza, CC-3162) allowed to seed at 37° C. in a humidified atmosphere of 5% CO2. Cells were treated and incubated in RPMI medium containing 1% fetal bovine serum (FBS) and Alexa-Fluor 488 labeled peptides (C-ter/Seq ID No 1, P4/Seq ID No 2, or P4-Cter/Seq ID No 3) at different concentrations and times. After treatment, the cells were fixed with 4% paraformaldehyde and analyzed in ImageXpress Micro Confocal High-Content Imaging (HCS, Molecular Devices) in Widefield mode and the number of vesicles containing the peptides in the cells was quantified using MetaXpress High-Content Image Acquisition and Analysis Software (Molecular Devices).
Peptides Cter, P4 and P4-C-ter were labeled with cell-impermeable Alexa Fluor 488. The capacity of P4 and P4-Cter peptides bound to Alexa 488 by HUVECs at 1 h, 2 h and 4 h was analyzed using different concentrations: 0.5 μM, 1 μM, 10 μM and 20 μM (FIG. 9). This was compared with uptake of C-ter peptide linked to Alexa 488 (concentration of 0.5 μM, 1 μM, 10 μM and 20 μM) after 4 hours, as shown in previous experiments for SK-MEL-28 (FIG. 3).

C-ter: polypeptide of SEQ ID No. 1, 50 amino acids, carboxy-terminal end of Amblyomin-X, prepared by chemical synthesis (EEQTHFHFESPKLISFKVQDYWILNDIMKKNLTGISLKSEEEDADSGEID)
cells positive for nuclear translocation (Mia PaCa-2; MIA PaCa-2): few cells were positive
Uptake by tumor cells (Mia PaCa-2; Mia PaCa-2, 0.25 h): 3.45 ± 1.34
Uptake by tumor cells (Mia PaCa-2; Mia PaCa-2, 0.5 h): 4.84 ± 1.95
Uptake by tumor cells (Mia PaCa-2; Mia PaCa-2, 1 h): 13.74 ± 7.15
Uptake by tumor cells (Mia PaCa-2; Mia PaCa-2, 2 h): 604.99 ± 24.47
Uptake by tumor cells (Mia PaCa-2; Mia PaCa-2, 4 h): 976.55 ± 74.55
cell viability (MTT) [1]: no change was observed
overlap with endocytosis markers (dextran, CTxB, transferrin) (Tumor cell lines; Alexa Fluor 555 labelled markers, shortest treatment time): the highest were with CTxB
co-localization with late endosomal markers (Tumor cell lines; Lyso Tracker, LAMP-2): found in co-localization with late endosomal markers, Lyso Tracker and LAMP-2
co-localization with cav-1 (Tumor cell lines; indirect immunofluorescence): occurred mainly after 4 hours of treatment
uptake by non-tumor cells (HUVEC): uptake by these cells
cells positive for nuclear translocation (SK-MEL-28; SK-MEL-28): few cells were positive
uptake by cells (green fluorescence, confocal) (SK-MEL-28; SK-MEL-28, 20 μM, 4 h, Alexa Fluor 488 complexed): taken up
Uptake by tumor cells (SK-MEL-28; SK-MEL-28, 0.25 h): 30.84 ± 17.2
Uptake by tumor cells (SK-MEL-28; SK-MEL-28, 0.5 h): 35.56 ± 21.09
Uptake by tumor cells (SK-MEL-28; SK-MEL-28, 1 h): 62.17 ± 11.20
Uptake by tumor cells (SK-MEL-28; SK-MEL-28, 2 h): 558.48 ± 189.00
Uptake by tumor cells (SK-MEL-28; SK-MEL-28, 4 h): 1210.74 ± 379.14
cell viability (MTT) [2]: decreasing the viability of RENCA by 1 μM
cell viability (MTT) [3]: no change was observed
uptake after pretreatment with Na3VO4 (SK-MEL-28 cells; SK-MEL-28, Na3VO4 pretreatment, then 4 h): not affected
tumor cell penetration after pretreatment with Na3VO4 or Annexin V (SK-MEL-28 cells; pretreatment with Na3VO4 or Annexin V): retains its ability to penetrate tumor cells
cell viability (MTT) [4]: no change was observed
cell viability (MTT) [5]: no change was observed
uptake by non-tumor cells (HDFa): uptake by these cells

P4-Alexa 488: peptide P4 (SEQ ID No. 2) labeled with Alexa Fluor 488 (YAIGYSSKDYK; also: Alexa Fluor 488 label) [reference compound]
uptake by HUVECs (HCS) (HUVECs; 4 h): poorly detected
detection within HUVECs (HCS) (HUVECs): not detected within cells

B1: P4-Cter-Alexa488: hybrid peptide P4-Cter (SEQ ID No. 3) labeled with Alexa Fluor 488 (conjugate)
chain: YAIGYSSKDYKEEQTHFHFESPKLISFKVQDYWILNDIMKKNLTGISLKSEEEDADSGEID
modifications: also: Alexa Fluor 488 label
uptake by HUVECs (HCS) (HUVECs; 1 h): efficiently absorbed
detection within HUVECs (HCS) (HUVECs): captured and quantified
